Source: US7247709B2, “Mitogenic oxygenases” (Emory University, priority 1998, dated 2007)

Molecular target: T1, mox1 NADPH-oxidase (Homo sapiens, UniProt Q9Y5S8, I173V)
T1 construct: expressed in transfected cells
T1 sequence (Q9Y5S8 1-564 I173V): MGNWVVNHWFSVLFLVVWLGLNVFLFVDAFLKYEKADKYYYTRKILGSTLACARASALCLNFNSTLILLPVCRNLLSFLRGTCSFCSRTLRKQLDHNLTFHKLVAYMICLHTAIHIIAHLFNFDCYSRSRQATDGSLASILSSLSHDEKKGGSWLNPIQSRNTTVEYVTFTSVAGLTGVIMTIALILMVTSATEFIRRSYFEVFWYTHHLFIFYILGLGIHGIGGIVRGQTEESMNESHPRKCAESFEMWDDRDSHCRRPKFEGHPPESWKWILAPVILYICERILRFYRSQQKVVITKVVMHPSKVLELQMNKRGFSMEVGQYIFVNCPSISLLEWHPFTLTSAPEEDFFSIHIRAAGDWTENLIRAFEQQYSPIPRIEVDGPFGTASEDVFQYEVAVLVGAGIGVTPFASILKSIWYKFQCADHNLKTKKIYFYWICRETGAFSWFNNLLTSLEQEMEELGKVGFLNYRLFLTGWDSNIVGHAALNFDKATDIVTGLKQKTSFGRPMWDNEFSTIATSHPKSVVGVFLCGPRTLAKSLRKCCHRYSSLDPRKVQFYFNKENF
T1 sequence (Q61462 1-192 partner): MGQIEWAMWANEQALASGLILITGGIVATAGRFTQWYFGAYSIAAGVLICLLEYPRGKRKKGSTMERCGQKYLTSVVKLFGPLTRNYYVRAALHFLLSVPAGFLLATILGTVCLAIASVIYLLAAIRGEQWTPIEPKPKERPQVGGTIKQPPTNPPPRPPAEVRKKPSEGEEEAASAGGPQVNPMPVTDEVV
Assay: Cell-free assay for mox1 NADPH-oxidase activity (NADPH-dependent chemiluminescence of cell lysates)
Assay type: biochemical
Details: MgCl2 1-5 mM
Procedure: In an alternate and preferred embodiment of the present invention, cells that had been stably transfected with mox1 (YA28) or with empty vector (NEF2) were grown in 10 cm tissue culture plates in medium containing DMEM, 10% calf serum, 100 units/ml penicillin, 100 μg/ml streptomycin, and 1 μg/ml puromycin to approximately 80% confluency. Cells (five tissue culture plates of each cell type) were washed briefly with 5 ml phosphate buffered saline (PBS) then dissociated from the plates with PBS containing 5 mM EDTA. Cells were pelleted by centrifuging briefly at 1000×g.
To permeabilize the cells, freeze thaw lysis was carried out and this was followed by passage of the cell material through a small bore needle. The supernatant was removed and the cells were frozen on dry ice for 15 minutes. […]
The cell lysates were assayed for protein concentration using the BioRad protein assay system. […] The reaction was initiated by adding 1.5 mM NADPH and 75 μM lucigenin to the assay mix to give a final concentration of 200 μM NADPH and 10 μM lucigenin, and the chemiluminescence was monitored immediately. […] The plate was monitored continuously for 60 minutes and the maximal relative luminescence unit (RLU) value for each sample was used for the graph. […]

SMILES: [Cl-].[Cl-].[Mg+2] [MgCl2]
- enhancement of NADPH-oxidase activity: about 2 fold
